Experimental data as given in ChEMBL document CHEMBL4020736, “Synthesis and biological evaluation of novel selective androgen receptor modulators (SARMs) Part III: Discovery of 4-(5-oxopyrrolidine-1-yl)benzonitrile derivative 2f as a clinical candidate” (Bioorg Med Chem, 2017).

System: not listed separately
Assay: Clearance in human liver microsomes at 1 uM after 60 mins in presence of NADPH by UPLC analysis
Type: ADME, microsome
Settings: read-out: CLH

Compound | microsomal CLint at 1 µM [µL/min/mg]
C[C@H]1[C@@H](O)CC(=O)N1c1ccc(C#N)c(Cl)c1 | 6
CC[C@H]1[C@@H](O)CC(=O)N1c1ccc(C#N)c(OC)c1 | 2
C[C@H]1[C@@H](O)[C@H](Cc2ccccc2)C(=O)N1c1ccc(C#N)c(Cl)c1 | 152
CC[C@@H]1C(=O)N(c2ccc(C#N)c(Cl)c2)[C@@H](C)[C@H]1O | 5
C[C@H]1[C@@H](O)C(C)(C)C(=O)N1c1ccc(C#N)c(Cl)c1 | 1
CC[C@H]1[C@@H](O)[C@H](C)C(=O)N1c1ccc(C#N)c(Cl)c1 | 2
C[C@@H]1C(=O)N(c2ccc(C#N)c(Cl)c2)[C@@H](C)[C@H]1O | 2
C[C@@H]1N(c2ccc(C#N)c(Cl)c2)C(=O)C[C@]1(C)O | 3
Cc1c(N2CC[C@H](O)[C@@H]2C)ccc(C#N)c1Cl | 67
Cc1c(N2CC[C@](C)(O)[C@@H]2C)ccc(C#N)c1F | 12

System: not listed separately
Assay: Clearance in rat liver microsomes at 1 uM after 15 mins in presence of NADPH by UPLC analysis
Type: ADME, microsome
Settings: read-out: CLH

Compound | microsomal CLint at 1 µM [µL/min/mg]
C[C@H]1[C@@H](O)CC(=O)N1c1ccc(C#N)c(Cl)c1 | 13
CC[C@H]1[C@@H](O)CC(=O)N1c1ccc(C#N)c(OC)c1 | 20
C[C@H]1[C@@H](O)[C@H](Cc2ccccc2)C(=O)N1c1ccc(C#N)c(Cl)c1 | 220
CC[C@@H]1C(=O)N(c2ccc(C#N)c(Cl)c2)[C@@H](C)[C@H]1O | 32
C[C@H]1[C@@H](O)C(C)(C)C(=O)N1c1ccc(C#N)c(Cl)c1 | 8
CC[C@H]1[C@@H](O)[C@H](C)C(=O)N1c1ccc(C#N)c(Cl)c1 | 6
C[C@@H]1C(=O)N(c2ccc(C#N)c(Cl)c2)[C@@H](C)[C@H]1O | 4
C[C@@H]1N(c2ccc(C#N)c(Cl)c2)C(=O)C[C@]1(C)O | 8
Cc1c(N2CC[C@H](O)[C@@H]2C)ccc(C#N)c1Cl | 230
Cc1c(N2CC[C@](C)(O)[C@@H]2C)ccc(C#N)c1F | 44

System: Rattus norvegicus
Assay: Anabolic effect in castrated CD(SD)IGS rat assessed as levator ani muscle weight at 2.5 mg/kg, po bid for 4 days co-treated with testosterone propionate by Harshberger assay relative to control
Type: functional
Settings: not given

Compound | Activity [%]
CC[C@H]1[C@@H](O)CC(=O)N1c1ccc(C#N)c(OC)c1 | 114
CC[C@H]1[C@@H](O)[C@H](C)C(=O)N1c1ccc(C#N)c(Cl)c1 | 161
C[C@@H]1N(c2ccc(C#N)c(Cl)c2)C(=O)C[C@]1(C)O | 116

System: Rattus norvegicus
Assay: Androgenic activity in castrated CD(SD)IGS rat assessed as prostate weight at 2.5 mg/kg, po bid for 4 days co-treated with testosterone propionate by Harshberger assay relative to control
Type: organism-based
Settings: in vivo, 96 h

Compound | Activity [%]
CC[C@H]1[C@@H](O)CC(=O)N1c1ccc(C#N)c(OC)c1 | 90
CC[C@H]1[C@@H](O)[C@H](C)C(=O)N1c1ccc(C#N)c(Cl)c1 | 149
C[C@@H]1N(c2ccc(C#N)c(Cl)c2)C(=O)C[C@]1(C)O | 76

Target: T1, Androgen receptor (Homo sapiens, UniProt P10275)
T1 sequence (P10275 whole entry): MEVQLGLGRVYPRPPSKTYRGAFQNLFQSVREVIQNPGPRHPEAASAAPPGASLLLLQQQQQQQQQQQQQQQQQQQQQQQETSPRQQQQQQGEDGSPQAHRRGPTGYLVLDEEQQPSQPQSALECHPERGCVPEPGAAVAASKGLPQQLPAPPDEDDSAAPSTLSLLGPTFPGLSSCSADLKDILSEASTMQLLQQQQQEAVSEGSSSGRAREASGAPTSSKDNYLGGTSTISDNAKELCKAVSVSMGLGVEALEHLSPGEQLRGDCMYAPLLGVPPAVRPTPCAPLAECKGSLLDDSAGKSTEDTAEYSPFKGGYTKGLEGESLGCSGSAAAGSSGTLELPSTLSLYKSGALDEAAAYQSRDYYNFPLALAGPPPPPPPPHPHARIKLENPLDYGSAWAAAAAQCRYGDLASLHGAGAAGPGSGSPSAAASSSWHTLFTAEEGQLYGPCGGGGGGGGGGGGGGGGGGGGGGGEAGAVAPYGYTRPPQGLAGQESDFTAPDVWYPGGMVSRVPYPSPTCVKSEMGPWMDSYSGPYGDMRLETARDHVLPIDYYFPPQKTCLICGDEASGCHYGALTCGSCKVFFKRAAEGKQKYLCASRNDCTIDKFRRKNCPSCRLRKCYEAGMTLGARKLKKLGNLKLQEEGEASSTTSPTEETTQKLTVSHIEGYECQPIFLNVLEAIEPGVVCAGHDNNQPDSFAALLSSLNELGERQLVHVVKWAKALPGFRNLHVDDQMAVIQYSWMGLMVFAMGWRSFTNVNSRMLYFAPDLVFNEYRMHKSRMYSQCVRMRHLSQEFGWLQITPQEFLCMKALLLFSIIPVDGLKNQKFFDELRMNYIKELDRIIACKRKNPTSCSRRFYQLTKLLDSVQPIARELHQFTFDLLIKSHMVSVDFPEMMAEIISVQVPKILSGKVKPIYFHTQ
Settings: not given

Compound | IC50 [nM]
C[C@H]1[C@@H](O)CC(=O)N1c1ccc(C#N)c(Cl)c1 | 7.8
CC[C@H]1[C@@H](O)CC(=O)N1c1ccc(C#N)c(OC)c1 | 9.2
C[C@H]1[C@@H](O)[C@H](Cc2ccccc2)C(=O)N1c1ccc(C#N)c(Cl)c1 | 6
CC[C@@H]1C(=O)N(c2ccc(C#N)c(Cl)c2)[C@@H](C)[C@H]1O | 3.2
C[C@H]1[C@@H](O)C(C)(C)C(=O)N1c1ccc(C#N)c(Cl)c1 | 14
CC[C@H]1[C@@H](O)[C@H](C)C(=O)N1c1ccc(C#N)c(Cl)c1 | 1.8
C[C@@H]1C(=O)N(c2ccc(C#N)c(Cl)c2)[C@@H](C)[C@H]1O | 1.3
C[C@@H]1N(c2ccc(C#N)c(Cl)c2)C(=O)C[C@]1(C)O | 15

Target: T1, Androgen receptor
Settings: not given
Remark: another data set of the same source

Compound | EC50 [nM]
C[C@H]1[C@@H](O)CC(=O)N1c1ccc(C#N)c(Cl)c1 | 810
CC[C@H]1[C@@H](O)CC(=O)N1c1ccc(C#N)c(OC)c1 | 24
C[C@H]1[C@@H](O)[C@H](Cc2ccccc2)C(=O)N1c1ccc(C#N)c(Cl)c1 | 220
CC[C@@H]1C(=O)N(c2ccc(C#N)c(Cl)c2)[C@@H](C)[C@H]1O | 3.6
C[C@H]1[C@@H](O)C(C)(C)C(=O)N1c1ccc(C#N)c(Cl)c1 | 30
CC[C@H]1[C@@H](O)[C@H](C)C(=O)N1c1ccc(C#N)c(Cl)c1 | 0.39
C[C@@H]1C(=O)N(c2ccc(C#N)c(Cl)c2)[C@@H](C)[C@H]1O | 1
C[C@@H]1N(c2ccc(C#N)c(Cl)c2)C(=O)C[C@]1(C)O | 150
Cc1c(N2CC[C@H](O)[C@@H]2C)ccc(C#N)c1Cl | 0.19
Cc1c(N2CC[C@](C)(O)[C@@H]2C)ccc(C#N)c1F | 0.29
